# Source: ChEMBL document CHEMBL1201862, “PubChem BioAssay data set” (2004)
#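 Where inhibition never reached the appropriate level, the endpoint shown equals the highest concentration tested. Otherwise, values were interpolated linearly from a five-concentration, 48-hour dose response in 96-well plates. GI50 = concentration required for 50% inhibition of growth.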 Active and inactive are the calls of the source. No stated cut-off is given here; in the data, active = GI50 up to about 1.1 µM and inactive = higher.
# What was measured:
# Experiment in all cases: DTP human tumour cell line panel, 48 h
# 786-0 = test system: 786-0
# A498 = test system: A498
# A549 = test system: A549
# ACHN = test system: ACHN
# CAKI-1 = test system: CAKI-1
# CCRF-CEM = test system: CCRF-CEM
# COLO 205 = test system: COLO 205
# DLD-1 = test system: DLD-1
# DMS-114 = test system: DMS-114
# DMS-273 = test system: DMS-273
# HCC 2998 = test system: HCC 2998
# HCT-15 = test system: HCT-15
# HL-60 = test system: HL-60
# HOP-18 = test system: HOP-18
# HOP-62 = test system: HOP-62
# HOP-92 = test system: HOP-92
# HT-29 = test system: HT-29
# IGROV-1 = test system: IGROV-1
# K562 = test system: K562
# KM-20L2 = test system: KM-20L2
# KM12 = test system: KM12
# LOX IMVI = test system: LOX IMVI
# LXFL 529 = test system: LXFL 529
# M14 = test system: M14
# M19-MEL = test system: M19-MEL
# MOLT-4 = test system: MOLT-4
# Malme-3M = test system: Malme-3M
# NCI-H226 = test system: NCI-H226
# NCI-H23 = test system: NCI-H23
# NCI-H460 = test system: NCI-H460
# OVCAR-3 = test system: OVCAR-3
# OVCAR-4 = test system: OVCAR-4
# OVCAR-5 = test system: OVCAR-5
# RPMI-8226 = test system: RPMI-8226
# RXF 393 = test system: RXF 393
# RXF 631 = test system: RXF 631
# SF-268 = test system: SF-268
# SF-295 = test system: SF-295
# SF-539 = test system: SF-539
# SK-MEL-28 = test system: SK-MEL-28
# SK-MEL-2 = test system: SK-MEL-2
# SK-MEL-5 = test system: SK-MEL-5
# SK-OV-3 = test system: SK-OV-3
# SN12C = test system: SN12C
# SNB-75 = test system: SNB-75
# SNB-78 = test system: SNB-78
# SW-620 = test system: SW-620
# U-251 = test system: U-251
# UACC-257 = test system: UACC-257
# UACC-62 = test system: UACC-62
# UO-31 = test system: UO-31
# XF498 = test system: XF498
compound,measurement,setting,value
O=C1[C@H]2ON(c3ccccc3)C(c3ccccc3F)[C@H]2C(=O)N1c1ccc(Cc2ccc(N3C(=O)[C@@H]4ON(c5ccccc5)C(c5ccccc5F)[C@@H]4C3=O)cc2)cc1 (some centres not stated),GI50,786-0,> 100 µM (inactive)
same,GI50,A498,> 100 µM (inactive)
same,GI50,A549,> 100 µM (inactive)
same,GI50,ACHN,> 100 µM (inactive)
same,GI50,CAKI-1,> 100 µM (inactive)
same,GI50,CCRF-CEM,> 100 µM (inactive)
same,GI50,COLO 205,> 100 µM (inactive)
same,GI50,DLD-1,> 100 µM (inactive)
same,GI50,DMS-114,> 100 µM (inactive)
same,GI50,DMS-273,46.1 µM (inactive)
same,GI50,HCC 2998,> 100 µM (inactive)
same,GI50,HCT-15,> 100 µM
same,GI50,HL-60,> 100 µM (inactive)
same,GI50,HOP-18,> 100 µM (inactive)
same,GI50,HOP-62,> 100 µM (inactive)
same,GI50,HOP-92,21.5 µM (inactive)
same,GI50,HT-29,> 100 µM (inactive)
same,GI50,IGROV-1,> 100 µM (inactive)
same,GI50,K562,> 100 µM (inactive)
same,GI50,KM-20L2,> 100 µM (inactive)
same,GI50,KM12,> 100 µM (inactive)
same,GI50,LOX IMVI,63.8 µM (inactive)
same,GI50,LXFL 529,> 100 µM (inactive)
same,GI50,M14,34.8 µM (inactive)
same,GI50,M19-MEL,> 100 µM (inactive)
same,GI50,MOLT-4,> 100 µM (inactive)
same,GI50,Malme-3M,> 100 µM (inactive)
same,GI50,NCI-H226,> 100 µM (inactive)
same,GI50,NCI-H23,> 100 µM (inactive)
same,GI50,NCI-H460,> 100 µM (inactive)
same,GI50,OVCAR-3,> 100 µM (inactive)
same,GI50,OVCAR-4,> 100 µM (inactive)
same,GI50,OVCAR-5,> 100 µM (inactive)
same,GI50,RPMI-8226,> 100 µM (inactive)
same,GI50,RXF 393,55.2 µM (inactive)
same,GI50,RXF 631,> 100 µM (inactive)
same,GI50,SF-268,> 100 µM (inactive)
same,GI50,SF-295,67.1 µM (inactive)
same,GI50,SF-539,> 100 µM (inactive)
same,GI50,SK-MEL-28,> 100 µM (inactive)
same,GI50,SK-MEL-2,> 100 µM (inactive)
same,GI50,SK-MEL-5,> 100 µM (inactive)
same,GI50,SK-OV-3,> 100 µM (inactive)
same,GI50,SN12C,> 100 µM (inactive)
same,GI50,SNB-75,> 100 µM (inactive)
same,GI50,SNB-78,> 100 µM (inactive)
same,GI50,SW-620,> 100 µM (inactive)
same,GI50,U-251,> 100 µM (inactive)
same,GI50,UACC-257,45.1 µM (inactive)
same,GI50,UACC-62,> 100 µM (inactive)
same,GI50,UO-31,> 100 µM (inactive)
same,GI50,XF498,> 100 µM (inactive)
